Measurements as given in ChEMBL document CHEMBL3991947, “D-serine transporter inhibitors as pharmaceutical compositions for the treatment of central nervous system disorders” (2014).
Calls of active or inactive are those of the source.

Tests used:
[1] = molecular target: T1, Amino acid transporter (Rattus norvegicus) (UniProt Q9Z1J7); experiment: Inhibition of ASCT2 mediated [3H]-D-serine uptake in rat hippocampal astrocytes at 1 mM after 5 mins by beta counting analysis; type: cell-based
T1 sequence (whole entry): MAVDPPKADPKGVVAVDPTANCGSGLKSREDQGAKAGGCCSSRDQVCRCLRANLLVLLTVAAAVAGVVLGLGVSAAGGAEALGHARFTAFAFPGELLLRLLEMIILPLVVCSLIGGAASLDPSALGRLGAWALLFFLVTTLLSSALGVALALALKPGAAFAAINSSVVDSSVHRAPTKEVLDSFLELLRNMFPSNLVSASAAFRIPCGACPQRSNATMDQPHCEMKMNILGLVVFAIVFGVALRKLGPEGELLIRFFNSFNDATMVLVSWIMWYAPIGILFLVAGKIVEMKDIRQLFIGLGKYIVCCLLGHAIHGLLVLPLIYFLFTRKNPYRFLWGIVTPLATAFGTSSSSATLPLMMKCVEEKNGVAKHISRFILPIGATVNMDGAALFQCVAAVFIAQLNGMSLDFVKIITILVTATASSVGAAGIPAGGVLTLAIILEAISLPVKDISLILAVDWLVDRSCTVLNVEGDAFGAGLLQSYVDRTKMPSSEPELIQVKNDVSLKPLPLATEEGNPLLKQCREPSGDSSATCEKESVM

[2] = species on record: Rattus norvegicus; experiment: Inhibition of D-serine transporter in Sprague-Dawley rat visual cortex assessed as LTP threshold after 15 mins
[3] = molecular target: T2, Glutamate NMDA receptor (Rattus norvegicus) (UniProt P35439+Q00959+Q00960+Q00961+Q62645+Q8VHN2+Q9R1M7); experiment: Potentiation of NMDA receptor mediated excitatory post-synaptic currents in the CA1 region of rat hippocampal slices upto 1 hr by whole-cell patch-clamp assay
[4] = molecular target: T1, Amino acid transporter (Rattus norvegicus); experiment: Inhibition of ASCT2 in rat hippocampal astrocytes assessed as reduction in [3H]-D-serine uptake in presence of L-t-40HPro after 5 mins by beta counting analysis; type: cell-based
[5] = species on record: Rattus norvegicus; experiment: Inhibition of D-serine transporter in rat hippocampal slices assessed as increase in LTP at 100 uM
[6] = test system: Mus musculus; experiment: Reduction in amphetamine-induced hyperactivity in C57B/6 mouse model of schizophrenia at 0.3 mg/kg, ip administered at 30 mins after habituation in open field apparatus followed by amphetamine injection measured for 1 hr post dose; type: functional, organism-based
[7] = test system: Mus musculus; experiment: Reduction in amphetamine-induced hyperactivity in systemically dosed C57B/6 mouse model of schizophrenia administered at 30 mins after habituation in open field apparatus followed by amphetamine injection measured for 1 hr post dose; type: functional, organism-based
[8] = test system: Rattus norvegicus; experiment: Effect on absolute startle response in rat model of schizophrenia at 600 mg/kg; type: ADME, organism-based; conditions: in vivo
[9] = test system: Rattus norvegicus; experiment: Antipsychotic activity in rat model of schizophrenia assessed as […] in prepulse inhibition at 600 mg/kg; type: functional, organism-based
[10] = molecular target: T2, Glutamate NMDA receptor (Rattus norvegicus); experiment: Activation of NMDA receptor in rat visual cortex assessed as increase in theta burst stimulation of LTP after 15 mins followed by LTP induction in presence of DAAO by electrophysiological assay
[11] = molecular target: T2, Glutamate NMDA receptor (Rattus norvegicus); experiment: Activation of NMDA receptor in rat visual cortex assessed as increase in theta burst stimulation of LTP after 15 mins followed by LTP induction by electrophysiological assay
[12] = test system: Rattus norvegicus; experiment: Effect on absolute startle response in rat model of schizophrenia at 15 mg/kg; type: ADME, organism-based; conditions: in vivo
[13] = molecular target: T2, Glutamate NMDA receptor (Rattus norvegicus); experiment: Potentiation of NMDA receptor mediated excitatory post-synaptic currents in the CA1 region of rat hippocampal slices after 1 hr by electrophysiological assay
[14] = test system: Rattus norvegicus; experiment: Antipsychotic activity in rat model of schizophrenia assessed as […] in prepulse inhibition at 15 mg/kg; type: functional, organism-based
[15] = molecular target: T1, Amino acid transporter (Rattus norvegicus); experiment: Inhibition of ASCT2 in rat hippocampal astrocytes assessed as reduction in [3H]-D-serine uptake in presence of L-glutamine after 5 mins by beta counting analysis; type: cell-based
[16] = test system: Mus musculus; experiment: Reduction in amphetamine-induced hyperactivity in C57B/6 mouse model of schizophrenia at 1 mg/kg administered at 30 mins after habituation in open field apparatus followed by amphetamine injection measured for 1 hr post dose; type: functional, organism-based

SMILES | inhibition [1] | also measured
N[C@H](C(=O)O)C1CC1 | > 25% | Activity [2]: 1 µM
N[C@@H](CCC(=O)OCc1ccccc1)C(=O)O |  | Activity [3]: inactive
N[C@@H](CSc1ccccc1)C(=O)O | > 25% | Activity [3]: inactive
N[C@H](C(=O)O)c1ccccc1 | > 25% | Activity [3]: inactive; Activity [2]: 10 µM
O=C(O)[C@@H]1CCCN1 | > 25% | Activity [3]: inactive
NC(=O)CC[C@H](N)C(=O)O | > 25% | Activity [3]: inactive; inhibition [4]: Active
N[C@@H](CSCc1ccccc1)C(=O)O | > 25% | Activity [3]: inactive
N[C@@H](CO)C(=O)O | > 25% | Activity [3]: inactive
NC(C(=O)O)c1cc(O)cc(O)c1 (stereo unspecified) | > 25% | 
N[C@@H](CCO)C(=O)O | > 25% | 
N[C@@H](CCC(=O)Nc1ccc([N+](=O)[O-])cc1)C(=O)O | > 25% | Activity [3]: inactive; Activity [2]: 100 µM; inhibition [5]: Active
N[C@@H](CC1CC1)C(=O)O | > 25% | 
O=C(O)[C@@H]1C[C@@H](C2CCCCC2)CN1 | > 25% | 
O=C(O)C1C[C@@H](Cc2ccc(Cl)c(Cl)c2)CN1 (single isomer, unassigned) | > 25% | 
O=C(O)[C@@H]1C[C@@H](Cc2ccc(C(F)(F)F)cc2)CN1 | > 25% | 
NC(C(=O)O)C(O)c1cccnc1 (racemic) | > 25% | 
O=C(O)[C@@H]1C[C@H](Cc2ccccc2)CN1 | > 25% | 
O=C(/C=C/c1c(C(=O)O)[nH]c2cc(Cl)cc(Cl)c12)Nc1ccccc1 | > 25% | 
N[C@H](C(=O)O)C1CCCCC1 | > 25% | 
COC(=O)[C@@H](N)c1ccccc1 | > 25% | 
NC(CC(=O)Nc1ccccc1)C(=O)O (stereo unspecified) | > 25% | 
N[C@H](C(=O)O)c1cccc(O)c1 | > 25% | 
O=C(O)[C@@H]1C[C@@H](c2ccccc2)CN1 | > 25% | 

SMILES | inhibition [1] | also measured
[N-]=[N+]=CC(=O)CC[C@H](N)C(=O)O | > 25% | 
N[C@H](C(=O)O)c1ccc(F)cc1 | > 25% | Activity [6]: Active; Activity [3]: inactive; Activity [7]: Dose-dependent effect; Activity [2]: 0.3 µM
N[C@H](C(=O)O)c1ccco1 | > 25% | 
N[C@@H](Cc1c[nH]c2ccc(O)cc12)C(=O)O | > 25% | 
O=C(O)[C@@H]1C[C@@H](Cc2cccc(Cl)c2)CN1 | > 25% | 
O=C(O)C1C[C@@H](Cc2ccncc2)CN1 (single isomer, unassigned) | > 25% | 
NC(C(=O)O)c1ccccc1F (stereo unspecified) | > 25% | Activity [3]: inactive; Activity [2]: > 300 µM
N[C@@H](Cc1ccc2ccccc2c1)C(=O)O | > 25% | 
O=C(O)C1NCc2ccccc21 (stereo unspecified) | > 25% | 
CC(C)[C@H](N)C(=O)O | > 25% | 
NC(=O)C[C@@H](N)C(=O)O | > 25% | 
NC1(C(=O)O)CCCC1 | > 25% | 
CCOC(=O)CC[C@H](N)C(=O)O | > 25% | 
O=C(O)C1C[C@@H](Cc2ccccc2Br)CN1 (single isomer, unassigned) | > 25% | 
O=C(O)[C@H](CO)NCc1ccccc1 | > 25% | 
C[C@H](N)C(=O)O | > 25% | 
N[C@H]1CCSC1=O | > 25% | 
CC(C)(C)c1ccc(C[C@H]2CNC(C(=O)O)C2)cc1 (single isomer, unassigned) | > 25% | 
COC[C@H](N)C(=O)O | > 25% | 
O=C(O)C1C[C@@H](Cc2ccccc2F)CN1 (single isomer, unassigned) | > 25% | 
O=C(O)[C@@H]1CCN1 | > 25% | 
NC(C(=O)O)c1ccc([N+](=O)[O-])cc1 (stereo unspecified) | > 25% | 
Cc1ccc(SC[C@H](N)C(=O)O)cc1 | > 25% | 

SMILES | inhibition [1] | also measured
N#Cc1cccc(C[C@H]2CNC(C(=O)O)C2)c1 (single isomer, unassigned) | > 25% | 
N[C@H](C(=O)O)c1ccc(O)c(C(=O)O)c1 | > 25% | 
O=C(O)C(c1ccc(F)cc1)N1CCOCC1 (stereo unspecified) | > 25% | 
C[C@H](O)[C@@H](N)C(=O)O | > 25% | 
NC(C(=O)O)c1ccc(CO)c(O)c1 (stereo unspecified) | > 25% | 
N[C@H](CO)C(=O)O [(D)-SERINE] | > 25% | Activity [8]: Non-Toxic; Activity [3]: inactive; Activity [9]: inactive; Activity [2]: 3 µM
C[C@@H](O)[C@H](N)C(=O)O | > 25% | 
O=C(O)C1Cc2c([nH]c3ccccc23)CN1 (stereo unspecified) | > 25% | 
NC(=O)C[C@H](N)C(=O)O | > 25% | Activity [3]: inactive; Activity [2]: 3 µM
N[C@H](C(=O)O)c1ccc(O)cc1 [OXFENICINE] | > 25% | Activity [10]: inactive; Activity [11]: Dose-dependent effect; Activity [12]: Non-Toxic; Activity [3]: Dose-dependent effect; Activity [13]: inactive; Activity [2]: 10 µM; Activity [14]: Active
O=C(O)[C@@H]1C[C@@H](O)CN1 | > 25% | inhibition [15]: Active; Activity [3]: inactive; Activity [2]: 3 µM
C[C@@H](O)[C@@H](N)C(=O)O (racemic) | > 25% | 
O=C(O)C1C[C@@H](Cc2ccccc2Cl)CN1 (single isomer, unassigned) | > 25% | 
O=C(O)[C@@H]1C[C@@H](Cc2ccc3ccccc3c2)CN1 | > 25% | 
CSCC[C@H](N)C(=O)O | > 25% | 
NC(C(=O)O)c1ccc(F)c(F)c1 (stereo unspecified) | > 25% | 
NC(C(=O)O)c1ccc2c(c1)OCCO2 (stereo unspecified) | > 25% | 
NC(C(=O)O)c1nnn[nH]1 (stereo unspecified) | > 25% | 
O=C(O)[C@@H]1C[C@@H](Cc2ccc(Cl)cc2Cl)CN1 |  | Activity [16]: Active
O=C(O)[C@@H]1C[C@H](Oc2cccc(Cl)c2)CN1 | > 25% | 
Cc1ccccc1[C@H](N)C(=O)O | > 25% | 
